Tests used:
S. aureus 8325-4 [1] = assay: Lytic response (culture turbidity 600 nm) in MH broth; format: cell-based; conditions: added at 5×, 10×, and 20×MIC to early log phase cultures
Method: (§1) Activities of the quinoline-indoles and comparator agents were determined against MSSA (n=32), MRSA (n=31) and VISA (n=7). Susceptibility testing on MH agar was performed using an inoculum of 10^6 c.f.u. Bactericidal, lytic and PAEs were determined on S. aureus 8325-4 in MH broth. Samples were removed for viable numbers on MH agar (for bactericidal response) and culture turbidity (600 nm) (for lytic response). PAEs were determined by a broth dilution method following exposure of bacteria to drugs at 5×MIC for 60 min.
The effects of the quinoline-indoles, and ciprofloxacin and rifampin (controls) on the integrity of S. aureus 8325-4 were examined following addition at 5×, 10×, and 20×MIC to early log phase cultures.
The lysis experiments were performed using classical “time kill-curve” methodology. See V. Lorian, Antibiotics in Laboratory Medicine, 4th ed., Chapter 2; Williams & Wilkins, Baltimore, 1996 (ISBN 0-683-05169-5). Bacteria (e.g., S. aureus) are exposed in liquid culture (early log phase approx […]) to multiples (typically 2×, 5×, 10×, and 20×) of the single cell agar MIC. Drug-free controls are also included. […] The samples are diluted in fresh drug-free medium and aliquots from a range of dilutions spread onto drug-free agar plates and those giving 30-300 colony forming units/plate are counted for quantification of survivors versus time of drug exposure. […]

S. aureus 8325-4 [2] = assay: Post-antibiotic effect (PAE), broth dilution method; format: cell-based; conditions: exposed to 5×MIC for 60 min before washout; PAE = T-C
Method: as §1
The PAE, defined as the lag period before the target organism resumes a normal growth rate after exposure to an inhibitor, was determined for D, A, and rifampin (control) against S. aureus 8325-4. Organisms were exposed to 5×MIC for 60 min. before washout and PAE calculated as T-C, wherein T=time required for treated cells to increase 1 log CFU/mL; and C=time required for non-treated control to increase 1 log CFU/ml. after washout with fresh medium. PAEs for D and A were both 40 min and for the rifampin control PAE was 180 mins. The rifampin PAE is in agreement with literature values.

| Structure (SMILES) | bactericidal mechanism of action (lytic versus non-lytic) (S. aureus 8325-4 [1]) | post-antibiotic effect (PAE) (S. aureus 8325-4 [2]) |
| --- | --- | --- |
| O=C(O)c1cn(C2CC2)c2cc(N3CCNCC3)c(F)cc2c1=O [ciprofloxacin] | non-lytic | – |
| CO[C@H]1/C=C/O[C@@]2(C)Oc3c(C)c(O)c4c(O)c(c(/C=N/N5CCN(C)CC5)c(O)c4c3C2=O)NC(=O)/C(C)=C\C=C\[C@H](C)[C@H](O)[C@@H](C)[C@@H](O)[C@@H](C)[C@H](OC(C)=O)[C@@H]1C [rifampin] | non-lytic | 180 min |
